Source: US20260130933A1, “PHARMACEUTICAL COMPOSITION FOR PREVENTION OR TREATMENT OF NEPHROPATHY AND/OR DIABETES MELLITUS, COMPRISING ENAVOGLIFLOZIN” (DAEWOONG PHARMACEUTICAL CO., LTD., priority 2022, published 2026)

Test: Example 1: phase 3 trial, enavogliflozin 0.3 mg once a day as monotherapy vs placebo for 24 weeks in patients with type 2 diabetes (HbA1c, FPG, C-peptide, body weight, lipids, blood pressure, HOMA, UACR, UGCR, adiponectin, leptin, safety)
Format: in vivo, human
Method: When a subject voluntarily gave written consent to participate in this clinical trial, a screening test was conducted. […] However, when the administration of a hypoglycemic agent was interrupted before the clinical trial Visit 1 (screening), at least an 8-week washout period, including the discontinuation period, was required, and during this period, a stable diet and exercise program was followed. Naïve patients were screened without a separate washout period, and the criteria for naïve patients were defined as patients who had not been administered hypoglycemic agents within 24 weeks prior to the date of obtaining written consent. […] In addition, they were instructed to maintain regular exercise and dietary control starting from 8 weeks prior to screening without changing their daily life patterns during the clinical trial period.

## OC[C@H]1O[C@@H](c2cc(Cc3ccc(C4CC4)cc3)c(Cl)c3c2CCO3)[C@H](O)[C@@H](O)[C@@H]1O [Enavogliflozin, (2S,3R,4R,5S,6R)-2-(7-chloro-6 (4-cyclopropylbenzyl)-2,3-dihydrobenzofuran-4-yl)-6-(hydroxymethyl)tetrahydro-2H-pyran-3,4,5-triol]
Week 6
  fasting C-peptide, Mean (SD): 0.66 ng/mL
  systolic blood pressure change from baseline, LS mean: −5.38 mmHg
  systolic blood pressure change from baseline, Mean: −4.81 mmHg
  total cholesterol change from baseline, LS mean: 5.76 mg/dL
  total cholesterol change from baseline, Mean: 5.75 mg/dL
  total cholesterol, Mean: 166.11 mg/dL
  triglycerides change from baseline, LS mean: -5.05 mg/dL
  triglycerides change from baseline, Mean: -1.21 mg/dL
  triglycerides, Mean: 116.13 mg/dL
Week 6, vs placebo
  FPG change from baseline, LS mean difference: -26.91 mg/dL
  HDL-C change from baseline, LS mean difference: 1.89 mg/dL
  HOMA-IR change from baseline, LS mean difference: −1.81
  HOMA-β change from baseline, LS mean difference: 3.30
  HbA1c change from baseline, LS mean difference: −0.52 % p
  LDL-C change from baseline, LS mean difference: 0.64 mg/dL
  Odds ratio for achieving HbA1c<6.5%: 3.29
  Odds ratio for achieving HbA1c<7%: 6.55
  Odds ratio for achieving therapeutic response: 12.84
  UACR change from baseline, LS mean difference: 7.96 g/kg
  UGCR change from baseline, LS mean difference: 52.97 mg/mg
  adiponectin change from baseline, LS mean difference: 0.26 µg/mL
  body weight change from baseline, LS mean difference: -1.45 kg
  diastolic blood pressure change from baseline, LS mean difference: −2.43 mmHg
  fasting C-peptide change from baseline, LS mean difference: -0.11 ng/mL
  leptin change from baseline, LS mean difference: -2.89 ng/mL
  systolic blood pressure change from baseline, LS mean difference: −4.07 mmHg
  total cholesterol change from baseline, LS mean difference: 1.95 mg/dL
  triglycerides change from baseline, LS mean difference: -17.69 mg/dL
Week 6, vs placebo, listed as enavogliflozin
  HbA1c change from baseline, LS mean difference: -0.52 % p
Week 12
  Body weight, Mean: 66.12 kg
  Diastolic blood pressure, Mean: 72.83 mmHg
  FPG change from baseline, LS mean (SE): −30.66(2.93) mg/dL
  FPG change from baseline, Mean (SD): −29.34(20.90) mg/dL
  FPG, Mean (SD): 111.66(13.55) mg/dL
  HDL-C change from baseline, LS mean: 2.35 mg/dL
  HDL-C change from baseline, Mean: 2.22 mg/dL
  HDL-C, Mean: 54.14 mg/dL
  HbA1c change from baseline, LS mean (SE): −0.84(0.07) % p
  HbA1c change from baseline, Mean (SD): −0.80(0.55) % p
  HbA1c, Mean (SD): 6.84(0.53) %
  LDL-C change from baseline, LS mean: -2.31 mg/dL
  LDL-C change from baseline, Mean: -0.09 mg/dL
  LDL-C, Mean: 95.38 mg/dL
  Subjects achieving HbA1c target of <6.5%: 22(26.83) %
  Subjects achieving HbA1c target of <7%: 54(65.85) %
  Subjects achieving therapeutic glycemic response (HbA1c change >0.5% or HbA1c<7%): 70(85.37) %
  Systolic blood pressure, Mean: 122.06 mmHg
  body weight change from baseline, LS mean: -2.59 kg
  body weight change from baseline, Mean: -2.65 kg
  diastolic blood pressure change from baseline, LS mean: −3.82 mmHg
  diastolic blood pressure change from baseline, Mean: −3.40 mmHg
  fasting C-peptide, Mean (SD): 0.64 ng/mL
  systolic blood pressure change from baseline, LS mean: −6.37 mmHg
  systolic blood pressure change from baseline, Mean: −5.78 mmHg
  total cholesterol change from baseline, LS mean: 4.75 mg/dL
  total cholesterol change from baseline, Mean: 5.99 mg/dL
  total cholesterol, Mean: 167.40 mg/dL
  triglycerides change from baseline, LS mean: 6.37 mg/dL
  triglycerides change from baseline, Mean: 2.90 mg/dL
  triglycerides, Mean: 120.34 mg/dL
Week 12, vs placebo
  FPG change from baseline, LS mean difference: -32.26 mg/dL
  HDL-C change from baseline, LS mean difference: 2.36 mg/dL
  HOMA-IR change from baseline, LS mean difference: −1.72
  HOMA-β change from baseline, LS mean difference: 12.09
  HbA1c change from baseline, LS mean difference: −0.71 % p
  LDL-C change from baseline, LS mean difference: -6.00 mg/dL
  Odds ratio for achieving HbA1c<6.5%: 7.58
  Odds ratio for achieving HbA1c<7%: 6.53
  Odds ratio for achieving therapeutic response: 14.77
  UACR change from baseline, LS mean difference: -15.16 g/kg
  UGCR change from baseline, LS mean difference: 51.21 mg/mg
  adiponectin change from baseline, LS mean difference: 0.67 µg/mL
  body weight change from baseline, LS mean difference: -1.66 kg
  diastolic blood pressure change from baseline, LS mean difference: −2.33 mmHg
  fasting C-peptide change from baseline, LS mean difference: -0.12 ng/mL
  leptin change from baseline, LS mean difference: -3.17 ng/mL
  systolic blood pressure change from baseline, LS mean difference: −3.06 mmHg
  total cholesterol change from baseline, LS mean difference: -4.04 mg/dL
  triglycerides change from baseline, LS mean difference: -10.37 mg/dL
Week 18
  Body weight, Mean: 65.32 kg
  Diastolic blood pressure, Mean: 72.60 mmHg
  FPG change from baseline, LS mean (SE): −31.97(3.23) mg/dL
  FPG change from baseline, Mean (SD): −30.52(22.34) mg/dL
  FPG, Mean (SD): 110.48(14.49) mg/dL
  HDL-C change from baseline, LS mean: 4.18 mg/dL
  HDL-C change from baseline, Mean: 3.62 mg/dL
  HDL-C, Mean: 55.55 mg/dL
  HbA1c change from baseline, LS mean (SE): −0.81(0.09) % p
  HbA1c change from baseline, Mean (SD): −0.77(0.67) % p
  HbA1c, Mean (SD): 6.88(0.54) %
  LDL-C change from baseline, LS mean: -0.32 mg/dL
  LDL-C change from baseline, Mean: 1.69 mg/dL
  LDL-C, Mean: 97.16 mg/dL
  Subjects achieving HbA1c target of <6.5%: 24(29.27) %
  Subjects achieving HbA1c target of <7%: 47(57.32) %
  Subjects achieving therapeutic glycemic response (HbA1c change >0.5% or HbA1c<7%): 60(73.17) %
  Systolic blood pressure, Mean: 121.63 mmHg
  body weight change from baseline, LS mean: -3.42 kg
  body weight change from baseline, Mean: -3.44 kg
  diastolic blood pressure change from baseline, LS mean: −4.09 mmHg
  diastolic blood pressure change from baseline, Mean: −3.63 mmHg
  fasting C-peptide, Mean (SD): 0.65 ng/mL
  systolic blood pressure change from baseline, LS mean: −6.56 mmHg
  systolic blood pressure change from baseline, Mean: −6.22 mmHg
  total cholesterol change from baseline, LS mean: 6.45 mg/dL
  total cholesterol change from baseline, Mean: 8.40 mg/dL
  total cholesterol, Mean: 169.82 mg/dL
  triglycerides change from baseline, LS mean: -8.82 mg/dL
  triglycerides change from baseline, Mean: -4.14 mg/dL
  triglycerides, Mean: 113.30 mg/dL
Week 18, vs placebo
  FPG change from baseline, LS mean difference: -33.40 mg/dL
  HDL-C change from baseline, LS mean difference: 2.69 mg/dL
  HOMA-IR change from baseline, LS mean difference: −1.49
  HOMA-β change from baseline, LS mean difference: 22.40
  HbA1c change from baseline, LS mean difference: −0.79 % p
  LDL-C change from baseline, LS mean difference: -2.35 mg/dL
  Odds ratio for achieving HbA1c<6.5%: 5.58
  Odds ratio for achieving HbA1c<7%: 4.85
  Odds ratio for achieving therapeutic response: 7.45
  UACR change from baseline, LS mean difference: -13.39 g/kg
  UGCR change from baseline, LS mean difference: 47.66 mg/mg
  adiponectin change from baseline, LS mean difference: 1.04 µg/mL
  body weight change from baseline, LS mean difference: -2.37 kg
  diastolic blood pressure change from baseline, LS mean difference: −1.90 mmHg
  fasting C-peptide change from baseline, LS mean difference: -0.11 ng/mL
  leptin change from baseline, LS mean difference: -2.36 ng/mL
  systolic blood pressure change from baseline, LS mean difference: −3.36 mmHg
  total cholesterol change from baseline, LS mean difference: -0.99 mg/dL
  triglycerides change from baseline, LS mean difference: -17.74 mg/dL
Week 24
  Body weight, Mean: 65.28 kg
  Diastolic blood pressure, Mean: 72.68 mmHg
  FPG change from baseline, LS mean (SE): −31.66(3.68) mg/dL
  FPG change from baseline, Mean (SD): −30.00(20.73) mg/dL
  FPG, Mean (SD): 111.00(14.56) mg/dL
  HDL-C change from baseline, LS mean: 4.39 mg/dL
  HDL-C change from baseline, Mean: 4.13 mg/dL
  HDL-C, Mean: 56.05 mg/dL
  HbA1c change from baseline, LS mean (SE): −0.88(0.10) % p
  HbA1c change from baseline, Mean (SD): −0.84(0.66) % p
  HbA1c, Mean (SD): 6.80(0.59) %
  LDL-C change from baseline, LS mean: -2.92 mg/dL
  LDL-C change from baseline, Mean: -1.03 mg/dL
  LDL-C, Mean: 94.44 mg/dL
  Subjects achieving HbA1c target of <6.5%: 29(35.37) %
  Subjects achieving HbA1c target of <7%: 58(70.73) %
  Subjects achieving therapeutic glycemic response (HbA1c change >0.5% or HbA1c<7%): 68(82.93) %
  Systolic blood pressure, Mean: 121.29 mmHg
  body weight change from baseline, LS mean: -3.47 kg
  body weight change from baseline, Mean: -3.48 kg
  diastolic blood pressure change from baseline, LS mean: −3.92 mmHg
  diastolic blood pressure change from baseline, Mean: −3.55 mmHg
  fasting C-peptide, Mean (SD): 0.64 ng/mL
  systolic blood pressure change from baseline, LS mean: −7.27 mmHg
  systolic blood pressure change from baseline, Mean: −6.55 mmHg
  total cholesterol change from baseline, LS mean: 4.84 mg/dL
  total cholesterol change from baseline, Mean: 6.58 mg/dL
  total cholesterol, Mean: 168.00 mg/dL
  triglycerides change from baseline, LS mean: -0.08 mg/dL
  triglycerides change from baseline, Mean: 1.95 mg/dL
  triglycerides, Mean: 119.39 mg/dL
Week 24, vs placebo
  FPG change from baseline, LS mean difference: -40.08 mg/dL
  HDL-C change from baseline, LS mean difference: 4.05 mg/dL
  HOMA-IR change from baseline, LS mean difference: −1.94
  HOMA-β change from baseline, LS mean difference: 5.88
  HbA1c change from baseline, LS mean difference: −0.99 % p
  LDL-C change from baseline, LS mean difference: -6.91 mg/dL
  Odds ratio for achieving HbA1c<6.5%: 12.10
  Odds ratio for achieving HbA1c<7%: 9.08
  Odds ratio for achieving therapeutic response: 12.98
  UACR change from baseline, LS mean difference: -13.92 g/kg
  UGCR change from baseline, LS mean difference: 47.36 mg/mg
  adiponectin change from baseline, LS mean difference: 0.98 µg/mL
  body weight change from baseline, LS mean difference: -2.47 kg
  diastolic blood pressure change from baseline, LS mean difference: −3.12 mmHg
  fasting C-peptide change from baseline, LS mean difference: -0.13 ng/mL
  leptin change from baseline, LS mean difference: -2.99 ng/mL
  systolic blood pressure change from baseline, LS mean difference: −5.75 mmHg
  total cholesterol change from baseline, LS mean difference: -6.40 mg/dL
  triglycerides change from baseline, LS mean difference: -28.56 mg/dL
